Source: ChEMBL document CHEMBL4371049, “Semi-synthesis and anti-tumor activity of novel 25-OCH3-PPD derivatives incorporating aromatic moiety” (Bioorg Med Chem Lett, 2019)

Tests used:
Type in all cases: functional, cell-based
BGC-823 = assay: Antiproliferative activity against human BGC823 cells after 48 hrs by MTT assay; conditions: BGC-823, 48 h
HepG2 = assay: Antiproliferative activity against human HepG2 cells after 48 hrs by MTT assay; conditions: HepG2, 48 h
PC-3 = assay: Antiproliferative activity against human PC3 cells after 48 hrs by MTT assay; conditions: PC-3, 48 h
MCF7 = assay: Antiproliferative activity against human MCF7 cells after 48 hrs by MTT assay; conditions: MCF7, 48 h
DU-145 = assay: Antiproliferative activity against human DU145 cells after 48 hrs by MTT assay; conditions: DU-145, 48 h

Compound	IC50 (BGC-823) [µM]	IC50 (HepG2) [µM]	IC50 (PC-3) [µM]	IC50 (MCF7) [µM]	IC50 (DU-145) [µM]
COC(C)(C)CCC[C@@](C)(O)[C@H]1CC[C@]2(C)[C@@H]1[C@H](OC(=O)c1ccc(I)cc1)C[C@@H]1[C@@]3(C)CC[C@H](O)C(C)(C)[C@@H]3CC[C@]12C	> 50	> 50	> 50	> 50	> 50
COC(C)(C)CCC[C@@](C)(O)[C@H]1CC[C@]2(C)[C@@H]1[C@H](OC(=O)/C=C/c1ccccc1)C[C@@H]1[C@@]3(C)CC[C@H](OC(=O)/C=C/c4ccccc4)C(C)(C)[C@@H]3CC[C@]12C	> 50	> 50	> 50	> 50	> 50
COC(C)(C)CCC[C@@](C)(O)[C@H]1CC[C@]2(C)[C@@H]1[C@H](OC(=O)c1cc(F)ccc1Br)C[C@@H]1[C@@]3(C)CC[C@H](OC(=O)c4cc(F)ccc4Br)C(C)(C)[C@@H]3CC[C@]12C	> 50	> 50	> 50	> 50	> 50
O=c1[nH]cc(F)c(=O)[nH]1 [FLUOROURACIL]	24.8	–	23.1	22.6	25.3
COC(C)(C)CCC[C@@](C)(O)[C@H]1CC[C@]2(C)[C@@H]1[C@H](OC(=O)c1cc(C)cc(C)c1)C[C@@H]1[C@@]3(C)CC[C@H](OC(=O)c4cc(C)cc(C)c4)C(C)(C)[C@@H]3CC[C@]12C	> 50	> 50	> 50	> 50	> 50
COC(C)(C)CCC[C@@](C)(O)[C@H]1CC[C@]2(C)[C@@H]1[C@H](OC(=O)/C=C/c1ccc(Cl)cc1)C[C@@H]1[C@@]3(C)CC[C@H](OC(=O)/C=C/c4ccc(Cl)cc4)C(C)(C)[C@@H]3CC[C@]12C	> 50	> 50	> 50	> 50	> 50
COC(C)(C)CCC[C@@](C)(O)[C@H]1CC[C@]2(C)[C@@H]1[C@H](O)C[C@@H]1[C@@]3(C)CC[C@H](OC(=O)c4ccc([N+](=O)[O-])cc4)C(C)(C)[C@@H]3CC[C@]12C	17.4	20.6	16.7	25.3	19.2
COC(C)(C)CCC[C@@](C)(O)[C@H]1CC[C@]2(C)[C@@H]1[C@H](OC(=O)c1ccccc1)C[C@@H]1[C@@]3(C)CC[C@H](OC(=O)c4ccccc4)C(C)(C)[C@@H]3CC[C@]12C	> 50	> 50	> 50	> 50	> 50
COC(C)(C)CCC[C@@](C)(O)[C@H]1CC[C@]2(C)[C@@H]1[C@H](OC(=O)c1ccccc1)C[C@@H]1[C@@]3(C)CC[C@H](O)C(C)(C)[C@@H]3CC[C@]12C	> 50	> 50	> 50	> 50	> 50
COC(C)(C)CCC[C@@](C)(O)[C@H]1CC[C@]2(C)[C@@H]1[C@H](O)C[C@@H]1[C@@]3(C)CC[C@H](OC(=O)/C=C/c4ccccc4)C(C)(C)[C@@H]3CC[C@]12C	28.7	26.4	37.2	35	40.1
COC(C)(C)CCC[C@@](C)(O)[C@H]1CC[C@]2(C)[C@@H]1[C@H](O)C[C@@H]1[C@@]3(C)CC[C@H](OC(=O)c4ccccc4I)C(C)(C)[C@@H]3CC[C@]12C	28.7	39.2	46.5	33.4	28.1
COC(C)(C)CCC[C@@](C)(O)[C@H]1CC[C@]2(C)[C@@H]1[C@H](O)C[C@@H]1[C@@]3(C)CC[C@H](OC(=O)c4ccccc4)C(C)(C)[C@@H]3CC[C@]12C	35.1	17.8	30.4	18.9	23.5
COC(C)(C)CCC[C@@](C)(O)[C@H]1CC[C@]2(C)[C@@H]1[C@H](O)C[C@@H]1[C@@]3(C)CC[C@H](OC(=O)c4cc(I)ccc4Cl)C(C)(C)[C@@H]3CC[C@]12C	> 50	28.8	> 50	29.4	30.7
COC(C)(C)CCC[C@@](C)(O)[C@H]1CC[C@]2(C)[C@@H]1[C@H](OC(=O)c1ccccc1I)C[C@@H]1[C@@]3(C)CC[C@H](OC(=O)c4ccccc4I)C(C)(C)[C@@H]3CC[C@]12C	> 50	> 50	> 50	> 50	> 50
COC(C)(C)CCC[C@@](C)(O)[C@H]1CC[C@]2(C)[C@@H]1[C@H](OC(=O)c1cc(I)ccc1Cl)C[C@@H]1[C@@]3(C)CC[C@H](OC(=O)c4cc(I)ccc4Cl)C(C)(C)[C@@H]3CC[C@]12C	> 50	> 50	> 50	> 50	> 50
COC(C)(C)CCC[C@@](C)(O)[C@H]1CC[C@]2(C)[C@@H]1[C@H](O)C[C@@H]1[C@@]3(C)CC[C@H](OC(=O)c4cccc(C)c4)C(C)(C)[C@@H]3CC[C@]12C	> 50	38.4	> 50	> 50	46.2
COC(C)(C)CCC[C@@](C)(O)[C@H]1CC[C@]2(C)[C@@H]1[C@H](O)C[C@@H]1[C@@]3(C)CC[C@H](O)C(C)(C)[C@@H]3CC[C@]12C	36	35.9	39.5	31.3	40.7
COC(C)(C)CCC[C@@](C)(O)[C@H]1CC[C@]2(C)[C@@H]1[C@H](O)C[C@@H]1[C@@]3(C)CC[C@H](OC(=O)c4cc(C)cc(C)c4)C(C)(C)[C@@H]3CC[C@]12C	> 50	> 50	> 50	48.2	> 50
COC(C)(C)CCC[C@@](C)(O)[C@H]1CC[C@]2(C)[C@@H]1[C@H](O)C[C@@H]1[C@@]3(C)CC[C@H](OC(=O)c4ccc(Cl)cc4)C(C)(C)[C@@H]3CC[C@]12C	26.4	25.7	28.3	19	20.5
COC(C)(C)CCC[C@@](C)(O)[C@H]1CC[C@]2(C)[C@@H]1[C@H](O)C[C@@H]1[C@@]3(C)CC[C@H](OC(=O)c4ccc(I)cc4)C(C)(C)[C@@H]3CC[C@]12C	> 50	> 50	> 50	46.3	31.8
COC(C)(C)CCC[C@@](C)(O)[C@H]1CC[C@]2(C)[C@@H]1[C@H](OC(=O)c1ccccc1C)C[C@@H]1[C@@]3(C)CC[C@H](O)C(C)(C)[C@@H]3CC[C@]12C	> 50	> 50	> 50	> 50	> 50
COC(C)(C)CCC[C@@](C)(O)[C@H]1CC[C@]2(C)[C@@H]1[C@H](O)C[C@@H]1[C@@]3(C)CC[C@H](OC(=O)c4ccccc4[N+](=O)[O-])C(C)(C)[C@@H]3CC[C@]12C	7.9	12	14.8	8.6	11.5
COC(C)(C)CCC[C@@](C)(O)[C@H]1CC[C@]2(C)[C@@H]1[C@H](O)C[C@@H]1[C@@]3(C)CC[C@H](OC(=O)c4cc([N+](=O)[O-])cc([N+](=O)[O-])c4)C(C)(C)[C@@H]3CC[C@]12C	9.5	14.5	7.5	11.7	13.4
COC(C)(C)CCC[C@@](C)(O)[C@H]1CC[C@]2(C)[C@@H]1[C@H](OC(=O)c1ccc([N+](=O)[O-])cc1)C[C@@H]1[C@@]3(C)CC[C@H](OC(=O)c4ccc([N+](=O)[O-])cc4)C(C)(C)[C@@H]3CC[C@]12C	> 50	> 50	> 50	> 50	> 50
COC(C)(C)CCC[C@@](C)(O)[C@H]1CC[C@]2(C)[C@@H]1[C@H](O)C[C@@H]1[C@@]3(C)CC[C@H](OC(=O)c4ccc(F)cc4)C(C)(C)[C@@H]3CC[C@]12C	12.7	8.5	15	9.4	13.8
COC(C)(C)CCC[C@@](C)(O)[C@H]1CC[C@]2(C)[C@@H]1[C@H](O)C[C@@H]1[C@@]3(C)CC[C@H](OC(=O)c4ccc(F)cc4F)C(C)(C)[C@@H]3CC[C@]12C	7.1	5.8	11.4	4.3	6.7
COC(C)(C)CCC[C@@](C)(O)[C@H]1CC[C@]2(C)[C@@H]1[C@H](O)C[C@@H]1[C@@]3(C)CC[C@H](OC(=O)/C=C/c4ccc(F)cc4)C(C)(C)[C@@H]3CC[C@]12C	18	26.9	17.6	23.7	20.6
COC(C)(C)CCC[C@@](C)(O)[C@H]1CC[C@]2(C)[C@@H]1[C@H](O)C[C@@H]1[C@@]3(C)CC[C@H](OC(=O)c4ccc(Br)cc4)C(C)(C)[C@@H]3CC[C@]12C	26.2	25.7	35.7	17.6	23.1
COC(C)(C)CCC[C@@](C)(O)[C@H]1CC[C@]2(C)[C@@H]1[C@H](OC(=O)c1cc([N+](=O)[O-])cc([N+](=O)[O-])c1)C[C@@H]1[C@@]3(C)CC[C@H](OC(=O)c4cc([N+](=O)[O-])cc([N+](=O)[O-])c4)C(C)(C)[C@@H]3CC[C@]12C	> 50	> 50	> 50	38.2	44.6
